The source of these data is patent US4868321A, “Isothiocyanate intermediates” (FMC Corporation, priority 1988, dated 1989).

Holding throughout (format): in vivo
Assay [1] deals with Field Bindweed. Briefly: Preemergence Herbicidal Activity, Field Bindweed. Conditions: pre-emergence; for pest or weed control at 500 g/ha: 0.5 kg/ha. The source says:
(§1) The herbicidal data in the following Tables 3 and 4 was obtained in the manner described in PCT published application no. WO 85/01939, previously mentioned, usually employing solutions of the herbicidal compound in 50/50 acetone/water mixtures. In those tables, the test compounds are identified by numbers which correspond to those in Table 1, "kg/ha" is kilograms per hectare, and "% C" is percent control.

The test system of assay [2] is Barnyardgrass. Briefly: Postemergence Herbicidal Activity, Barnyardgrass. The following applies: Echinochloa crus-galli, post-emergence; for pest or weed control at 500 g/ha: 0.5 kg/ha. The source says: (§2) The herbicidal data in the following Tables 3 and 4 was obtained in the manner described in PCT published application no. […] In those tables, the test compounds are identified by numbers which correspond to those in Table 1, "kg/ha" is kilograms per hectare, and "% C" is percent control.

For assay [3], the system named is Johnsongrass. The assay can be described thus: Postemergence Herbicidal Activity, Johnsongrass. Conditions: Sorghum halepense, post-emergence; for pest or weed control at 500 g/ha: 0.5 kg/ha.
Excerpt: as §2

Assay [4] has as its system Field Bindweed. Briefly: Postemergence Herbicidal Activity, Field Bindweed. The following applies: post-emergence; for pest or weed control at 500 g/ha: 0.5 kg/ha.
Excerpt: as §1

Assay [5] concerns Wheat. The assay can be described thus: Postemergence Herbicidal Activity, Wheat. The following applies: Triticum aestivum, post-emergence; for plant injury at 500 g/ha: 0.5 kg/ha.
Excerpt: as §2

The subject of assay [6] is Rice. Briefly: Preemergence Herbicidal Activity, Rice. The following applies: Oryza sativa, pre-emergence; for plant injury at 500 g/ha: 0.5 kg/ha.
Excerpt: as §2

Assay [7] relates to Velvetleaf. Briefly: Postemergence Herbicidal Activity, Velvetleaf. Conditions: Abutilon theophrasti, post-emergence; for pest or weed control at 500 g/ha: 0.5 kg/ha.
Excerpt: as §1

Assay [8] relates to Field Corn. The assay can be described thus: Preemergence Herbicidal Activity, Field Corn. The following applies: Zea mays, pre-emergence; for plant injury at 500 g/ha: 0.5 kg/ha.
Excerpt: as §2

The test system of assay [9] is Soybean. Briefly: Preemergence Herbicidal Activity, Soybean. Conditions: Glycine max, pre-emergence; for plant injury at 500 g/ha: 0.5 kg/ha.
Excerpt: as §2

Assay [10] deals with Wheat. Briefly: Preemergence Herbicidal Activity, Wheat. The following applies: Triticum aestivum, pre-emergence; for plant injury at 500 g/ha: 0.5 kg/ha.
Excerpt: as §2

The subject of assay [11] is Soybean. The assay can be described thus: Postemergence Herbicidal Activity, Soybean. The following applies: Glycine max, post-emergence; for plant injury at 500 g/ha: 0.5 kg/ha.
Excerpt: as §2

The subject of assay [12] is Morningglory. The assay can be described thus: Preemergence Herbicidal Activity, Morningglory. Conditions: Ipomoea, pre-emergence; for pest or weed control at 500 g/ha: 0.5 kg/ha.
Excerpt: as §1

For assay [13], the system named is Johnsongrass. The assay can be described thus: Preemergence Herbicidal Activity, Johnsongrass. The following applies: Sorghum halepense, pre-emergence; for pest or weed control at 500 g/ha: 0.5 kg/ha.
Excerpt: as §2

The subject of assay [14] is Rice. The assay can be described thus: Postemergence Herbicidal Activity, Rice. Conditions: Oryza sativa, post-emergence; for plant injury at 500 g/ha: 0.5 kg/ha.
Excerpt: as §2

The subject of assay [15] is Cotton. Briefly: Preemergence Herbicidal Activity, Cotton. The following applies: Gossypium hirsutum, pre-emergence; for plant injury at 500 g/ha: 0.5 kg/ha.
Excerpt: as §1

The test system of assay [16] is Morningglory. Briefly: Postemergence Herbicidal Activity, Morningglory. The following applies: Ipomoea, post-emergence; for pest or weed control at 500 g/ha: 0.5 kg/ha.
Excerpt: as §1

Assay [17] relates to Green Foxtail. The assay can be described thus: Preemergence Herbicidal Activity, Green Foxtail. Conditions: Setaria viridis, pre-emergence; for pest or weed control at 500 g/ha: 0.5 kg/ha.
Excerpt: as §2

The subject of assay [18] is Field Corn. Briefly: Postemergence Herbicidal Activity, Field Corn. The following applies: Zea mays, post-emergence; for plant injury at 500 g/ha: 0.5 kg/ha.
Excerpt: as §2

Assay [19] relates to Velvetleaf. The assay can be described thus: Preemergence Herbicidal Activity, Velvetleaf. The following applies: Abutilon theophrasti, pre-emergence; for pest or weed control at 500 g/ha: 0.5 kg/ha.
Excerpt: as §1

For assay [20], the system named is Cotton. Briefly: Postemergence Herbicidal Activity, Cotton. The following applies: Gossypium hirsutum, post-emergence; for plant injury at 500 g/ha: 0.5 kg/ha.
Excerpt: as §1

Assay [21] relates to Green Foxtail. The assay can be described thus: Postemergence Herbicidal Activity, Green Foxtail. The following applies: Setaria viridis, post-emergence; for pest or weed control at 500 g/ha: 0.5 kg/ha.
Excerpt: as §2

The test system of assay [22] is Barnyardgrass. The assay can be described thus: Preemergence Herbicidal Activity, Barnyardgrass. The following applies: Echinochloa crus-galli, pre-emergence; for pest or weed control at 500 g/ha: 0.5 kg/ha.
Excerpt: as §2

`CCS(=O)(=O)N(COC)c1cc(-n2nnn(CCCF)c2=O)c(F)cc1Cl` [Compound 15, 1-[4-chloro-2-fluoro-5-[(N---ethylsulfonyl-N--methoxymethyl)amino]-phenyl]-1,4-dihydro-4-(3-fluoropropyl)-5H--tetrazol-5-one]: the pest or weed control at 500 g/ha turned out to be 100% in the assay with Field Bindweed [1]; 80% with Barnyardgrass [2]; 80% with Johnsongrass [3]; 80% in the assay with Field Bindweed [4]; 100% in the assay on Velvetleaf [7]; 100% in the assay on Morningglory [12]. Also, the pest or weed control at 500 g/ha in the assay on Johnsongrass [13] worked out at 100%; with Morningglory [16], 100%; with Green Foxtail [17], 100%; with Velvetleaf [19] it was 100%; with Green Foxtail [21] it was 90%; in the assay on Barnyardgrass [22] it was 100%. For the same compound, the plant injury at 500 g/ha was 100% with Wheat [5]; 100% with Rice [6]; 100% with Field Corn [8]; 95% in the assay on Soybean [9]; 100% with Wheat [10]; 95% in the assay on Soybean [11]. Besides, the plant injury at 500 g/ha with Rice [14] was 60%; with Cotton [15], 100%; in the assay on Field Corn [18], 95%; with Cotton [20], 100%.

For `O=c1n(CCCF)nnn1-c1cc(NS(=O)(=O)C(F)(F)F)c(Cl)cc1Cl` [Compound 35, 1-[2,4-Dichloro-5-(N--trifluoromethylsulfonylamino)phenyl]-4,5-dihydro-4-(3-fluoropropyl)-5H--tetrazol-5-one], the pest or weed control at 4000 g/ha with Field Bindweed [1] (4.0 kg/ha) stood at 100%; with Barnyardgrass [2] (4.0 kg/ha), 70%; in the assay on Johnsongrass [3] (4.0 kg/ha), 90%; with Field Bindweed [4] (4.0 kg/ha), 95%; with Velvetleaf [7] (4.0 kg/ha), 100%; in the assay on Morningglory [12] (4.0 kg/ha) it was 100%. Also, the pest or weed control at 4000 g/ha stood at 95% in the assay on Johnsongrass [13] (4.0 kg/ha); 100% in the assay with Morningglory [16] (4.0 kg/ha); 100% in the assay on Green Foxtail [17] (4.0 kg/ha); 100% in the assay on Velvetleaf [19] (4.0 kg/ha); 100% in the assay on Green Foxtail [21] (4.0 kg/ha); 90% with Barnyardgrass [22] (4.0 kg/ha). The plant injury at 4000 g/ha in the assay with Wheat [5] (4.0 kg/ha) is 40%; in the assay with Rice [6] (4.0 kg/ha), 95%; with Field Corn [8] (4.0 kg/ha) it was 50%; in the assay on Soybean [9] (4.0 kg/ha), 80%; in the assay on Wheat [10] (4.0 kg/ha) it was 70%; in the assay with Soybean [11] (4.0 kg/ha), 100%. Besides, the plant injury at 4000 g/ha with Rice [14] (4.0 kg/ha) worked out at 80%; in the assay on Cotton [15] (4.0 kg/ha), 100%; in the assay on Field Corn [18] (4.0 kg/ha), 70%; with Cotton [20] (4.0 kg/ha), 100%.

Take `CS(=O)(=O)N(c1cc(-n2nnn(CCCF)c2=O)c(Cl)cc1F)S(C)(=O)=O` [Compound 36, 1-[2-Chloro-4-fluoro-5-[bis-(N--methylsulfonyl)amino]phenyl]-4,5-dihydro-4-(3-fluoropropyl)-5H--tetrazol-5-one]: the pest or weed control at 2000 g/ha is 100% in the assay with Field Bindweed [1] (2.0 kg/ha); 50% with Barnyardgrass [2] (2.0 kg/ha); 50% in the assay on Johnsongrass [3] (2.0 kg/ha); 60% with Field Bindweed [4] (2.0 kg/ha); 90% in the assay on Velvetleaf [7] (2.0 kg/ha); 90% in the assay with Morningglory [12] (2.0 kg/ha). The pest or weed control at 2000 g/ha in the assay with Johnsongrass [13] (2.0 kg/ha) was 40%; in the assay with Morningglory [16] (2.0 kg/ha), 80%; with Green Foxtail [17] (2.0 kg/ha), 50%; in the assay with Velvetleaf [19] (2.0 kg/ha), 95%; in the assay on Green Foxtail [21] (2.0 kg/ha), 50%; in the assay on Barnyardgrass [22] (2.0 kg/ha), 70%. The plant injury at 2000 g/ha with Wheat [5] (2.0 kg/ha) worked out at 10%; in the assay on Rice [6] (2.0 kg/ha), 0%; in the assay with Field Corn [8] (2.0 kg/ha), 70%; in the assay on Soybean [9] (2.0 kg/ha) it was 0%; with Wheat [10] (2.0 kg/ha), 0%; in the assay on Soybean [11] (2.0 kg/ha), 10%. Also, the plant injury at 2000 g/ha in the assay with Rice [14] (2.0 kg/ha) amounted to 10%; with Cotton [15] (2.0 kg/ha) it was 70%; in the assay on Field Corn [18] (2.0 kg/ha), 10%; with Cotton [20] (2.0 kg/ha), 70%.

`CCCS(=O)(=O)N(c1cc(-n2nnn(CCCF)c2=O)c(F)cc1F)S(=O)(=O)CCC` [Compound 25]: the pest or weed control at 500 g/ha came out at 0% in the assay on Field Bindweed [1]; 20% in the assay with Barnyardgrass [2]; 20% with Johnsongrass [3]; 40% in the assay with Field Bindweed [4]; 80% in the assay with Velvetleaf [7]; 10% in the assay on Morningglory [12]. Further, the pest or weed control at 500 g/ha was determined as 60% in the assay on Johnsongrass [13]; 30% in the assay with Morningglory [16]; 10% in the assay on Green Foxtail [17]; 20% in the assay on Velvetleaf [19]; 30% with Green Foxtail [21]; 50% in the assay with Barnyardgrass [22]. For the same compound, the plant injury at 500 g/ha worked out at 20% in the assay with Wheat [5]; 20% with Rice [6]; 80% in the assay with Field Corn [8]; 20% in the assay on Soybean [9]; 20% in the assay with Wheat [10]; 20% with Soybean [11]. The plant injury at 500 g/ha in the assay with Rice [14] is 20%; in the assay on Cotton [15], 10%; in the assay with Field Corn [18] it was 60%; in the assay on Cotton [20], 40%.
